Publication PMC12920294, “Optimizing uPAR-targeting radiopeptides for improved tissue distribution: progress towards radionuclide therapy” (European Journal of Nuclear Medicine and Molecular Imaging, 2025)
Where two headings read alike, the source gives them in different places. Marks after values point to notes of the source that are not given here.

Key:
human serum albumin = human serum albumin (Homo sapiens, UniProt P02768); settings: cited from earlier work
[1] = tested on: HEK-uPAR xenograft-bearing mice; settings: ref Beyer et al. 2025, Mol Pharm 22:3242, cited from earlier work
[2] = parameters: method as in Beyer et al. 2025, Mol Pharm 22:3242; settings: 37 °C, ref Beyer et al. 2025, Mol Pharm 22:3242, cited from earlier work
[3] = parameters: method as in Beyer et al. 2025, Mol Pharm 22:3242; settings: FVB mice, ref Beyer et al. 2025, Mol Pharm 22:3242, cited from earlier work
[4] = tested on: HEK-uPAR xenograft-bearing mice; settings: mouse, in vivo
Method: (§1) HEK-uPAR xenografted mice were injected with the respective radiopeptide (5 MBq, 0.5 nmol/mouse, 100 µL 0.9% NaCl containing 0.05% BSA) and sacrificed at 4 h and 24 h after injection. […] The tissues and organs of interest were collected, weighed and counted for activity using a γ-counter (Wallac Wizard 1480, PerkinElmer). […] The results were presented as the average ± SD of n = 3 mice. The time-activity curves were determined for the uptake of [^177Lu]Lu-DOTA-AE105 and [^177Lu]Lu-uPAR-11 in the blood, HEK-uPAR xenografts, kidneys and liver based on non-decay corrected biodistribution data. For the blood, the initial uptake (t = 0) was set as 50% IA/g assuming a blood volume of 2 mL for CD1 nude mice. The initial uptake value (t = 0) for all other organs and tissues was set as 0% IA/g. […] The area under the curves over 48 h after injection (AUC0h→48 h) was calculated using GraphPad Prism software (version 10.1.1). Statistical analyses were performed by applying a one-way ANOVA test with a Dunnet’s multiple comparison post‐test to compare the data of the new radiopeptides with those of [^177Lu]Lu-DOTA-AE105 and a Tukey’s multiple comparisons post‐test to compare the novel radiopeptides among them. A p-value of < 0.05 was considered a statistically significant difference using GraphPad Prism software (version 10.1.1).

[5] = parameters: method as in Beyer et al. 2025, Mol Pharm 22:3242; settings: 37 °C, ref Beyer et al. 2025, Mol Pharm 22:3242, cited from earlier work; remark: listed apart in the source
[6] = Biodistribution in HEK-uPAR xenografted nude mice; settings: CD1 nude, mouse, 0.5 nmol/mouse, total radioactivity, 1 h p.i., decay-corrected
Method: as §1

[7] = tested on: HEK-uPAR xenograft-bearing mice; test: Biodistribution in HEK-uPAR xenografted nude mice
Method: as §1

[8] = parameters: method as in Beyer et al. 2025, Mol Pharm 22:3242; settings: saline, L-ascorbic acid, ref Beyer et al. 2025, Mol Pharm 22:3242, cited from earlier work
[9] = non-decay-corrected, ± standard error

Sequence of human serum albumin (P02768 25-609): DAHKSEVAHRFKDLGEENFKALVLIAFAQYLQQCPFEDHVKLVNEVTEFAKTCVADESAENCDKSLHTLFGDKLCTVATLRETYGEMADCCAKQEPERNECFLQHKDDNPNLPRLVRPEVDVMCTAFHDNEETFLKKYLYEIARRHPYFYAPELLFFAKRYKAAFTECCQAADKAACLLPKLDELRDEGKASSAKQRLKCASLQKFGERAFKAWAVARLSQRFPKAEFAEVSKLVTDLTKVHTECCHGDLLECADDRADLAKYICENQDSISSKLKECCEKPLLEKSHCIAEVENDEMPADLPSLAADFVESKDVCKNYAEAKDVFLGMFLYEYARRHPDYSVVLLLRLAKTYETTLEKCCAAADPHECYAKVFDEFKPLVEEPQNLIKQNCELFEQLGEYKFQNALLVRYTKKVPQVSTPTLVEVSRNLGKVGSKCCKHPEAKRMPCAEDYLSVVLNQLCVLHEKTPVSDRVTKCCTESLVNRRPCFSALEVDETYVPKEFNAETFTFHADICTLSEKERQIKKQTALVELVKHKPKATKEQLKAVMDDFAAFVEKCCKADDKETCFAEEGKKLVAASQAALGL

- Xgrft-to-kidney ratio [4]: 0.46 ± 0.07
- tissue uptake at 1 h ([6]; HEK-uPAR xenograft, HEK-uPAR xenograft uptake): 1.9 ± 0.7 %ID/g
- tissue uptake at 1 h ([6]; blood, Blood uptake): 0.92 ± 0.4 %ID/g
- tissue uptake at 1 h ([6]; bone, Bone uptake): 0.35 ± 0.11 %ID/g
- tissue uptake at 1 h ([6]; brain, Brain uptake): < 0.03 %ID/g
- tissue uptake at 1 h ([6]; heart, Heart uptake): 0.38 ± 0.16 %ID/g
- tissue uptake at 1 h ([6]; intestines, Intestines uptake): 0.52 ± 0.1 %ID/g
- tissue uptake at 1 h ([6]; kidneys, Kidneys uptake): 4.2 ± 0.8 %ID/g
- tissue uptake at 1 h ([6]; liver, Liver uptake): 0.4 ± 0.14 %ID/g
- tissue uptake at 1 h ([6]; lung, Lung uptake): 1.2 ± 0.4 %ID/g
- tissue uptake at 1 h ([6]; muscle, Muscle uptake): 0.14 ± 0.06 %ID/g
- tissue uptake at 1 h ([6]; pancreas, Pancreas uptake): 0.26 ± 0.08 %ID/g
- tissue uptake at 1 h ([6]; salivary glands, Salivary glands uptake): 0.35 ± 0.13 %ID/g
- tissue uptake at 1 h ([6]; spleen, Spleen uptake): 0.47 ± 0.17 %ID/g
- tissue uptake at 1 h ([6]; stomach, Stomach uptake): 0.39 ± 0.2 %ID/g
- Xgrft-to-blood ratio ([7]; 1 h p.i.): 2.2 ± 0.2
- Xgrft-to-liver ratio ([7]; 1 h p.i.): 4.9 ± 0.1
- AUC0h→48h, HEK-uPAR xenograft [7, 9]: 26 ± 3 % IA/g*h
- AUC0h→48h, blood [7, 9]: 28 ± 1 % IA/g*h
- AUC0h→48h, kidneys [7, 9]: 62 ± 2 % IA/g*h
- AUC0h→48h, liver [7, 9]: 6.9 ± 0.2 % IA/g*h
SMILES: CC(C)C[C@H](NC(=O)[C@H](Cc1ccc(O)cc1)NC(=O)[C@@H](CCCNC(=N)N)NC(=O)[C@@H](CO)NC(=O)[C@H](Cc1ccccc1)NC(=O)[C@H](CC1CCCCC1)NC(=O)[C@H](CC(=O)O)NC(=O)CN1CCN(CC(=O)O)CCN(CC(=O)O)CCN(CC(=O)O)CC1)C(=O)N[C@@H](Cc1c[nH]c2ccccc12)C(=O)N[C@@H](CO)C(N)=O [[^177Lu]Lu-DOTA-AE105, metal not drawn]
- Inverse relative albumin-binding affinity (human serum albumin): 0.02^a
- Blood uptake ([1]; 4 h p.i.): 0.08 ± 0.01 %IA/g
- Bone uptake ([1]; 4 h p.i.): 0.38 ± 0.03 %IA/g
- Brain uptake ([1]; 4 h p.i.): <0.03 %IA/g
- HEK-uPAR xenograft uptake ([1]; 4 h p.i.): 0.87 ± 0.05 %IA/g
- Heart uptake ([1]; 4 h p.i.): 0.06 ± 0.01 %IA/g
- Intestines uptake ([1]; 4 h p.i.): 0.31 ± 0.03 %IA/g
- Kidneys uptake ([1]; 4 h p.i.): 1.5 ± 0.1 %IA/g
- Liver uptake ([1]; 4 h p.i.): 0.10 ± 0.01 %IA/g
- Lung uptake ([1]; 4 h p.i.): 0.30 ± 0.02 %IA/g
- Muscle uptake ([1]; 4 h p.i.): <0.03 %IA/g
- Pancreas uptake ([1]; 4 h p.i.): 0.06 ± 0.01 %IA/g
- Salivary glands uptake ([1]; 4 h p.i.): 0.09 ± 0.01 %IA/g
- Spleen uptake ([1]; 4 h p.i.): 0.18 ± 0.02 %IA/g
- Stomach uptake ([1]; 4 h p.i.): 0.15 ± 0.03 %IA/g
- Xgrft-to-blood ratio ([1]; 4 h p.i.): 11 ± 1
- Xgrft-to-liver ratio ([1]; 4 h p.i.): 8.6 ± 0.4
- Blood uptake ([1]; 24 h p.i.): <0.03 %IA/g
- Bone uptake ([1]; 24 h p.i.): 0.84 ± 0.10 %IA/g
- Brain uptake ([1]; 24 h p.i.): <0.03 %IA/g
- HEK-uPAR xenograft uptake ([1]; 24 h p.i.): 0.40 ± 0.19 %IA/g
- Heart uptake ([1]; 24 h p.i.): 0.04 ± 0.01 %IA/g
- Intestines uptake ([1]; 24 h p.i.): 0.18 ± 0.02 %IA/g
- Kidneys uptake ([1]; 24 h p.i.): 1.3 ± 0.1 %IA/g
- Liver uptake ([1]; 24 h p.i.): 0.17 ± 0.01 %IA/g
- Lung uptake ([1]; 24 h p.i.): 0.21 ± 0.01 %IA/g
- Muscle uptake ([1]; 24 h p.i.): <0.03 %IA/g
- Pancreas uptake ([1]; 24 h p.i.): 0.06 ± 0.01 %IA/g
- Salivary glands uptake ([1]; 24 h p.i.): 0.09 ± 0.01 %IA/g
- Spleen uptake ([1]; 24 h p.i.): 0.23 ± 0.04 %IA/g
- Stomach uptake ([1]; 24 h p.i.): 0.17 ± 0.03 %IA/g
- Xgrft-to-blood ratio ([1]; 24 h p.i.): 32 ± 13
- Xgrft-to-liver ratio ([1]; 24 h p.i.): 2.4 ± 0.9
- Human blood plasma stability, intact radiopeptide ([2]; 1 h): 71 ± 3%
- Human blood plasma stability, intact radiopeptide ([2]; 4 h): 13 ± 6%
- Human blood plasma stability, intact radiopeptide ([2]; 24 h): 4.5 ± 1.2%
- Blood plasma, intact radiopeptide ([3]; 1 h p.i.): <1.0%
- Blood plasma, radiometabolite ([3]; 1 h p.i.): >99%
- Kidneys, intact radiopeptide ([3]; 1 h p.i.): <1.0%
- Kidneys, radiometabolite ([3]; 1 h p.i.): >99%
- Liver, intact radiopeptide ([3]; 1 h p.i.): <1.0%
- Liver, radiometabolite ([3]; 1 h p.i.): >99%
- Urine, intact radiopeptide ([3]; 1 h p.i.): 1.4%
- Urine, radiometabolite ([3]; 1 h p.i.): 99%
- Blood plasma, intact radiopeptide ([3]; 4 h p.i.): <1.0%
- Blood plasma, radiometabolite ([3]; 4 h p.i.): >99%
- Kidneys, intact radiopeptide ([3]; 4 h p.i.): <1.0%
- Kidneys, radiometabolite ([3]; 4 h p.i.): >99%
- Liver, intact radiopeptide ([3]; 4 h p.i.): <1.0%
- Liver, radiometabolite ([3]; 4 h p.i.): >99%
- Urine, intact radiopeptide ([3]; 4 h p.i.): 2.3%
- Urine, radiometabolite ([3]; 4 h p.i.): 98%
- Mouse blood plasma stability, intact radiopeptide ([5]; 1 h): 61 ± 6%
- Mouse blood plasma stability, intact radiopeptide ([5]; 4 h): 13 ± 7%
- Mouse blood plasma stability, intact radiopeptide ([5]; 24 h): 4.6 ± 2.2%
- Radiolytic stability, intact radiopeptide ([8]; 1 h): 98 ± 2%
- Radiolytic stability, intact radiopeptide ([8]; 4 h): 98 ± 1%
- Radiolytic stability, intact radiopeptide ([8]; 24 h): 96 ± 2%
